From patent US10821115B2, “Compounds that inhibit Mcl-1 protein” (priority 2017, dated 2020) come the findings set out here.

Experiment [1] has as its target recombinant human Mcl-1 (residues 171-327) / Bim interaction (Homo sapiens (Human), UniProt Q07820). Kind of experiment: biochemical. It is filed as binding. As to conditions: read-out: Mcl-1 HTRF IC50.
The subject of experiment [2] is human multiple myeloma cell line, OPM-2. Kind of experiment: Cell viability assay (OPM-2 10 FBS), CellTiter-Glo. It is filed as cell-based. A digest of the protocol:
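Steps: plate cells at 3000/well in 10% FBS growth medium, add serially diluted compound, incubate 16 h at 37 °C with 5% CO2, add detection reagent and read luminescence after 25 min. A 4-parameter logistic model gives IC50.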

Setting [3] is: TR-FRET, Mcl-1(171-327) / biotin-Bim (51-76).
Where [4] appears, read: Homo sapiens, OPM-2, 16 h, read-out: OPM-2 10% FBS IC50 IP, OPM-2 cells, 10% FBS, 16 h, CellTiter-Glo.

Like-named read-outs stand apart in the source and are kept apart here.

recombinant human Mcl-1 (residues 171-327) / Bim interaction, sequence (Q07820 171-327): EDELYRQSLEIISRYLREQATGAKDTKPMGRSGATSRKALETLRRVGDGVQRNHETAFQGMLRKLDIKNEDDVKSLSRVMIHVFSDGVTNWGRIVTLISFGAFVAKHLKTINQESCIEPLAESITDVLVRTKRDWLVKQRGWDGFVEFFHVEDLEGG

For `C[C@@H]1[C@@H](C)C/C=C/[C@@](O)(C#CCCc2ccccn2)[C@@H]2CC[C@H]2CN2C[C@@]3(CCCc4cc(Cl)ccc43)COc3ccc(cc32)C(=O)NS1(=O)=O` [Example 100454, (1S,3′R,6′R,7′S,8′E,11′S,12′R)-6-chloro-7′-hydroxy-11′,12′-dimethyl-7′-(4-(2-pyridinyl)-1-butyn-1-yl)-3,4-dihydro-2H,15′H-spiro[naphthalene-1,22′-[20]oxa[13]thia[1,14]diazatetracyclo [14.7.2.0~3,6~.0~19,24~]pentacosa[8,16,18,24]tetraen]-15′-one 13′,13′-dioxide], the IC50 in experiment [1] (setting [3]) is 0.000652 µM; in experiment [2] (read-out: OPM-2 10% FBS IC50 IP, OPM-2 cells, 10% FBS, 16 h, CellTiter-Glo) it was 0.802 µM.
With `C[C@@H]1[C@@H](C)C/C=C/[C@](O)(c2cnccc2F)[C@@H]2CC[C@H]2CN2C[C@@]3(CCCc4cc(Cl)ccc43)COc3ccc(cc32)C(=O)NS1(=O)=O` (stereo in doubt) [Example 100537], the IC50 in experiment [1] (setting [3]) is 0.000115 µM; in experiment [2] (setting [4]), 0.256 µM.
As for `C[C@@H]1[C@@H](C)CCC[C@@](O)(c2nccn2C)[C@@H]2CC[C@H]2CN2C[C@@]3(CCCc4cc(Cl)ccc43)COc3ccc(cc32)C(=O)NS1(=O)=O` [Example 100226, (1S,3′R,6′R,7′S,11′S,12′R)-6-chloro-7′-hydroxy-11′,12′-dimethyl-7′-(1-methyl-1H-imidazol-2-yl)-3,4-dihydro-2H,15′H-spiro[naphthalene-1,22′-[20]oxa[13]thia[1,14]diazatetracyclo [14.7.2.0~3,6~.0~19,24~]pentacosa[16,18,24]trien]-15′-one 13′,13′-dioxide], the IC50 in experiment [1] (setting [3]) amounted to 0.00139 µM; in experiment [2] (setting [4]), 0.849 µM.
On to `CO[C@@]1(CN2CC(C)(C#N)C2)/C=C/C[C@H](C)[C@@H](C)S(=O)(=O)NC(=O)c2ccc3c(c2)N(C[C@@H]2CC[C@H]21)C[C@@]1(CCCc2cc(Cl)ccc21)CO3` [Example 67, 1-(((1S,3′R,6′R,7′S,8′E,11′S, 12′R)-6-chloro-7′-methoxy-11′,12′-dimethyl-13′,13′-dioxido-15′-oxo-3,4-dihydro-2H-spiro[naphthalene-1,22′-[20]oxa[13]thia[1,14]diazatetracyclo [14.7.2.0~3,6~.0~19,24~]pentacosa[8,16,18,24]tetraen]-7′-yl)methyl)-3-methyl-3-azetidinecarbonitrile], for which the IC50 worked out at 0.000197 µM in experiment [1] (0.1 nM Mcl-1(171-327), 0.05 nM biotin-Bim (51-76)) and 0.149 µM in experiment [2] (Homo sapiens, OPM-2, 16 h, read-out: OPM-2 10% FBS IC50 IP, OPM-2 cells, 10% FBS, 16 h incubation).
Take `COC[C@@H](C)N(C)C(=O)C[C@]1(OC)/C=C/C[C@H](C)[C@@H](C)S(=O)(=O)NC(=O)c2ccc3c(c2)N(C[C@@H]2CC[C@H]21)C[C@@]1(CCCc2cc(Cl)ccc21)CO3` [Example 100451, 2-((1S,3′R,6′R,7′S,8′E,11′S,12′R)-6-chloro-7′-methoxy-11′,12′-dimethyl-13′,13′-dioxido-15′-oxo-3,4-dihydro-2H-spiro[naphthalene-1,22′-[20]oxa[13]thia[1,14]diazatetracyclo [14.7.2.0~3,6~.0~19,24~]pentacosa[8,16,18,24]tetraen]-7′-yl)-N-((2R)-1-methoxy-2-propanyl)-N-methylacetamide]: the IC50 in experiment [1] (setting [3]) was found to be 0.000111 µM; in experiment [2] (setting [4]) it was 0.412 µM.
As to `CO[C@@]1(c2cncnc2)/C=C/C[C@H](C)[C@@H](C)S(=O)(=O)NC(=O)c2ccc3c(c2)N(C[C@@H]2CC[C@H]21)C[C@@]1(CCCc2cc(Cl)ccc21)CO3` [Example 100468, (1S,3′R,6′R,7′S,8′E,11′S,12′R)-6-chloro-7′-methoxy-11′,12′-dimethyl-7′-(5-pyrimidinyl)-3,4-dihydro-2H,15′H-spiro[naphthalene-1,22′-[20]oxa[13]thia[1,14]diazatetracyclo [14.7.2.0~3,6~.0~19,24~]pentacosa[8,16,18,24]tetraen]-15′-one 13′,13′-dioxide], the IC50 in experiment [1] (setting [3]) turned out to be 0.000393 µM; in experiment [2] (setting [4]), 0.943 µM.
